ChEMBL document CHEMBL1201862, “PubChem BioAssay data set” (2004)
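Where inhibition never reached the appropriate level, the endpoint shown equals the highest concentration tested. Otherwise, values were interpolated linearly from a five-concentration, 48-hour dose response in 96-well plates. GI50 = concentration required for 50% inhibition of growth.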 The source made the active and inactive calls. No stated cut-off is given here; in the data, active = GI50 up to about 1.1 µM and inactive = higher.

Columns and labels:
Experiment in all cases: NCI anticancer screen, dose series, 48 h
[1] = tested on: UACC-62
[2] = tested on: XF498
[3] = tested on: CAKI-1
[4] = tested on: EKVX
[5] = tested on: UO-31
[6] = tested on: HOP-92
[7] = tested on: SF-295
[8] = tested on: CCRF-CEM
[9] = tested on: SK-MEL-28
[10] = tested on: 786-0
[11] = tested on: HT-29
[12] = tested on: TK-10
[13] = tested on: OVCAR-3
[14] = tested on: LXFL 529
[15] = tested on: KM12
[16] = tested on: SNB-78
[17] = tested on: HCT-15
[18] = tested on: OVCAR-8
[19] = tested on: IGROV-1
[20] = tested on: MOLT-4
[21] = tested on: A549
[22] = tested on: Malme-3M
[23] = tested on: SK-MEL-2
[24] = tested on: NCI-H226
[25] = tested on: HOP-18
[26] = tested on: NCI-H23
[27] = tested on: DMS-273
[28] = tested on: HCT-116
[29] = tested on: SW-620
[30] = tested on: U-251
[31] = tested on: K562
[32] = tested on: HOP-62
[33] = tested on: SF-268
[34] = tested on: COLO 205
[35] = tested on: NCI-H460
[36] = tested on: NCI-H522
[37] = tested on: KM-20L2
[38] = tested on: SNB-19
[39] = tested on: SR
[40] = tested on: OVCAR-4
[41] = tested on: SN12C
[42] = tested on: HL-60
[43] = tested on: UACC-257
[44] = tested on: DLD-1
[45] = tested on: RXF 393
[46] = tested on: M14
[47] = tested on: SNB-75
[48] = tested on: SK-MEL-5
[49] = tested on: SK-OV-3
[50] = tested on: DMS-114
[51] = tested on: OVCAR-5
[52] = tested on: RPMI-8226
[53] = tested on: LOX IMVI
[54] = tested on: SF-539
[55] = tested on: HCC 2998
[56] = tested on: ACHN
[57] = tested on: M19-MEL
[58] = tested on: A498

In the case of COc1ccc(NC(=O)C(=O)C2CNC(=O)NC2=O)c(OC)c1 (configuration not stated), the GI50 [1] is reported as > 100 µM (inactive), the GI50 [2] is reported as > 100 µM (inactive) and the GI50 [3] is reported as > 100 µM (inactive). The GI50 [4] was > 100 µM (inactive), the GI50 [5] was > 100 µM (inactive) and the GI50 [6] was > 100 µM (inactive). The GI50 [7] was > 100 µM (inactive), the GI50 [8] was > 100 µM (inactive) and the GI50 [9] was > 100 µM (inactive). For the same compound, the GI50 [10] was > 100 µM (inactive), the GI50 [11] was > 100 µM (inactive) and the GI50 [12] was > 100 µM (inactive). For the same compound, the GI50 [13] was > 100 µM (inactive), the GI50 [14] was > 100 µM (inactive) and the GI50 [15] was > 100 µM (inactive). The GI50 [16] was > 100 µM (inactive), the GI50 [17] was > 100 µM and the GI50 [18] was > 100 µM (inactive). For the same compound, the GI50 [19] was > 100 µM (inactive), the GI50 [20] was > 100 µM (inactive) and the GI50 [21] was > 100 µM (inactive). For the same compound, the GI50 [22] was > 100 µM (inactive), the GI50 [23] was > 100 µM (inactive) and the GI50 [24] was > 100 µM (inactive). For the same compound, the GI50 [25] was > 100 µM (inactive), the GI50 [26] was > 100 µM (inactive) and the GI50 [27] was > 100 µM (inactive). For the same compound, the GI50 [28] was > 100 µM (inactive), the GI50 [29] was > 100 µM (inactive) and the GI50 [30] was > 100 µM (inactive). For the same compound, the GI50 [31] was > 100 µM (inactive), the GI50 [32] was > 100 µM (inactive) and the GI50 [33] was > 100 µM (inactive). The GI50 [34] was > 100 µM (inactive), the GI50 [35] was > 100 µM (inactive) and the GI50 [36] was > 100 µM (inactive). For the same compound, the GI50 [37] was > 100 µM (inactive), the GI50 [38] was > 100 µM (inactive) and the GI50 [39] was > 100 µM (inactive). For the same compound, the GI50 [40] was > 100 µM (inactive), the GI50 [41] was > 100 µM (inactive) and the GI50 [42] was > 100 µM (inactive). The GI50 [43] was > 100 µM (inactive), the GI50 [44] was > 100 µM (inactive) and the GI50 [45] was > 100 µM (inactive). The GI50 [46] was > 100 µM (inactive), the GI50 [47] was > 100 µM (inactive) and the GI50 [48] was > 100 µM (inactive). The GI50 [49] was > 100 µM (inactive), the GI50 [50] was > 100 µM (inactive) and the GI50 [51] was > 100 µM (inactive). For the same compound, the GI50 [52] was > 100 µM (inactive), the GI50 [53] was > 100 µM (inactive) and the GI50 [54] was > 100 µM (inactive). For the same compound, the GI50 [55] was > 100 µM (inactive) and the GI50 [56] was > 100 µM (inactive).

With O=C(Nc1nc2ncn(CCNCCn3cnc4nc(NC(=O)c5ccccc5)[nH]c(=O)c43)c2c(=O)[nH]1)c1ccccc1 the GI50 [1] was > 100 µM (inactive), the GI50 [2] was > 100 µM (inactive) and the GI50 [3] was > 100 µM (inactive). The GI50 [4] was > 100 µM (inactive), the GI50 [5] was > 100 µM (inactive) and the GI50 [6] was > 100 µM (inactive). For the same compound, the GI50 [7] was > 100 µM (inactive), the GI50 [8] was > 100 µM (inactive) and the GI50 [9] was > 100 µM (inactive). For the same compound, the GI50 [10] was > 100 µM (inactive), the GI50 [11] was > 100 µM (inactive) and the GI50 [12] was > 100 µM (inactive). For the same compound, the GI50 [13] was > 100 µM (inactive), the GI50 [14] was > 100 µM (inactive) and the GI50 [15] was > 100 µM (inactive). The GI50 [57] was > 100 µM (inactive), the GI50 [16] was > 100 µM (inactive) and the GI50 [17] was > 100 µM. The GI50 [18] was > 100 µM (inactive), the GI50 [19] was > 100 µM (inactive) and the GI50 [20] was > 100 µM (inactive). For the same compound, the GI50 [21] was > 100 µM (inactive), the GI50 [22] was > 100 µM (inactive) and the GI50 [23] was > 100 µM (inactive). For the same compound, the GI50 [24] was > 100 µM (inactive), the GI50 [25] was > 100 µM (inactive) and the GI50 [26] was > 100 µM (inactive). For the same compound, the GI50 [27] was > 100 µM (inactive), the GI50 [28] was > 100 µM (inactive) and the GI50 [29] was > 100 µM (inactive). The GI50 [30] was > 100 µM (inactive), the GI50 [31] was > 100 µM (inactive) and the GI50 [32] was > 100 µM (inactive). For the same compound, the GI50 [33] was > 100 µM (inactive), the GI50 [34] was > 100 µM (inactive) and the GI50 [35] was > 100 µM (inactive). The GI50 [36] was > 100 µM (inactive), the GI50 [37] was > 100 µM (inactive) and the GI50 [38] was > 100 µM (inactive). The GI50 [40] was > 100 µM (inactive), the GI50 [41] was > 100 µM (inactive) and the GI50 [42] was > 100 µM (inactive). For the same compound, the GI50 [43] was > 100 µM (inactive), the GI50 [44] was > 100 µM (inactive) and the GI50 [45] was > 100 µM (inactive). The GI50 [46] was > 100 µM (inactive), the GI50 [47] was > 100 µM (inactive) and the GI50 [48] was > 100 µM (inactive). The GI50 [49] was > 100 µM (inactive), the GI50 [58] was > 100 µM (inactive) and the GI50 [51] was > 100 µM (inactive). The GI50 [52] was > 100 µM (inactive), the GI50 [53] was > 100 µM (inactive) and the GI50 [54] was > 100 µM (inactive). The GI50 [55] was > 100 µM (inactive) and the GI50 [56] was > 100 µM (inactive).
